Experimental data: patent US7981928B2, “Chemotherapy method using x-rays” (Nanodynamics, Inc., priority 2002, dated 2011)

Experiments:
cells = settings: cited from earlier work
mice = settings: cited from earlier work
neuroblastoma lines = assay: nuclear chemotherapy with 77BrdC on neuroblastoma lines; type: cell-based; settings: ten neuroblastoma lines tested; H4U blockage
Protocol: An investigation of a method called “nuclear chemotherapy” was done many years previously at Sloan-Kettering Research Institute in New York, by Dr. Chia-Gee Wang and Dr. Lawrence Helson. The research was done using ^77BrdC, where ^77Br (half-life at 57 hours) would undergo a K-capture and deliver 10^6 or more Gy at a small distance. The […] of BrdC to BrdU can be blocked by the non-toxic H4U and therefore excluding BrdC from being incorporated into the DNA pool. Certain transformed cells, on the other hand, would make use of a more primitive kinase to bypass the H4U blockage, and incorporate BrdC to form BrdU. The ^77Br was made by adding an α particle to ^75As in a facility in the U.K. ^77Br was obtained in liquid solution, and ^77BrdC was made. […] The cells simply stopped mitosis while continuing most of the cellular functions. The Auger electrons from the ^77BrdU delivered such a high dose of the DNA duplex that no cellular repair was possible.

For 7-DTPA-Paclitaxel, which “retention of paclitaxel potency in the cells” value (cells) is on record?
The value was “retain much of the paclitaxel potency”.

With `O=C([O-])CN(CCN(CC(=O)[O-])CC(=O)O)CCN(CC(=O)[O-])CC(=O)O.[Gd+3]` [Gd-DTPA] as the compound, how does the LD50 in mice (mice) read?
Its LD50 in mice is ~10 mmol/kg.

With `Nc1nc(=O)n([C@H]2C[C@H](O)[C@@H](CO)O2)cc1[77Br]` [^77BrdC] as the compound, how does the “sensitivity of neuroblastoma lines” value (neuroblastoma lines) read?
Its value is “two of the ten lines were sensitive”.
